From patent US12595243B2, “Modulators of extracellular signal-regulated kinase” (GEN1E LIFESCIENCES INC., priority 2023, dated 2026) come the findings set out here.

Read-outs that look alike come from different tables or passages of the source.

Series [1] relates to glioblastoma cell line U87. The experiment in a line: Cytotoxicity in cancer cell lines (CellTiter-Glo), U87. Conditions: Homo sapiens, U-87 MG, U87 cells, mean of three tests. The format is cell-based. From the text: (§1) All cells were obtained from ATCC. […] Normocin® was obtained from InvivoGen. FBS was obtained from Gibco. […] All test compounds were synthesized as described herein.
In general terms: Cellular ATP, detected with luciferase, serves as a proxy for viable cell number.

The subject of series [2] is melanoma cell line Sk-Mel-28. The experiment in a line: Cytotoxicity in cancer cell lines (CellTiter-Glo), Sk-Mel-28. It counts as cell-based. Conditions: Homo sapiens, Sk-Mel-28 cells, mean of three tests.
Text: as §1

Series [3] concerns immortalized human T lymphocyte Jurkat cells. The experiment in a line: Cytotoxicity in cancer cell lines (CellTiter-Glo), Jurkat. The conditions noted are these: Jurkat cells, mean of three tests. The format is cell-based.
Text: as §1

For series [4], the system named is human pancreatic carcinoma cell line PL-45. The experiment in a line: Cytotoxicity in cancer cell lines (CellTiter-Glo), PL-45. Conditions: PL45, 48 h, read-out: Cytotoxicity EC50 at 48 hours, PL-45.
Method: (§2) The cytotoxicity of test compounds was determined for several cell lines including melanoma cell line RPMI-7951, melanoma cell line Sk-Mel-28, melanoma cell line A375, melanoma cell line U87, glioblastoma cell line U87, immortalized human T lymphocyte Jurkat cells, and human pancreatic carcinoma cell line PL-45.
(§3) All cells were obtained from ATCC. RPMI, DMEM, EMEM and pen/strep were obtained from Invitrogen. Normocin® was obtained from InvivoGen. FBS was obtained from Gibco. Cell viability reagent Cell-titer glow was obtained from Promega.
(§4) The growth media for A375 and PL45 cells was DMEM supplemented with antibiotic/anti-mycotic pen/strep and Normocin® (InvivoGen) and 10% FBS.
(§5) Ten (10) mM solutions of each of the test compounds were prepared in dimethyl sulfoxide (DMSO) and serially diluted in DMSO to provide solutions having concentrations of the test compound of 3 mM, 1 mM, 0.3 mM, 0.1 mM, 0.03 mM, or 0.01 mM. Forty (40) μL of each of the solutions were further diluted to 400 μL in the cell specific complete media to provide 10× stock solutions having a 1 mM, 300 μM, 100 μM, 30 μM, 10 μM, 3 μM, 1 μM, or 0.3 μM of the test compound. Ten (10) μL of DMSO was diluted to 400 μL in the complete media and used as the 0 μM control.
(§6) For the cytotoxicity studies, all cells were grown in their respective complete media. Confluent cells were harvested and plated into two 96-well tissue culture treated plates at 5,000-8,000 cells/wells in 180 μL media. Twenty (20) μL of each of the 10× stock solutions were added to the wells and mixed.
(§7) After incubating for 24 h, media was aspirated out and replaced with 180 μL/well of the fresh media and 20 μL/well of the 10× stock solutions in duplicate wells in duplicate plates (Plates 1 and 2; and 3 and 4) and in quadruplicate wells (Plate 5) were added, mixed and cultured for 48 hours. The final concentrations of each test compound were 100 μM, 30 μM, 10 μM, 3 μM, 1 μM, 0.3 μM, 0.1 μM and 0 μM.
(§8) After 48 hours and/or 72 hours following addition of the test compounds, one plate each was removed from the incubator, the media aspirated out, 100 μL of CellTiter-Glo® reagent added to each well, and the resulting luminescent signals measured using a VICTOR-2® plate reader.
(§9) The data from the plate reader were exported to GraphPad (Prism) and data processed using non-linear regression and EC50 value determined.
Series [5] is described as follows: Cytotoxicity in primary cells (CellTiter-Glo), PBMC. The format is cell-based. The conditions noted are these: mean of three tests.
Text: as §1

A further series relates to melanoma cell line A375. The experiment in a line: Cytotoxicity in cancer cell lines (CellTiter-Glo), A375. The conditions noted are these: A375 cells, mean of three tests.
In series [6] the test system is melanoma cell line RPMI-7951. The experiment in a line: Cytotoxicity in cancer cell lines (CellTiter-Glo), RPMI-7951. Conditions: Homo sapiens. It counts as cell-based.
Text: as §1

Where [7] appears, read: 48 h, read-out: Cytotoxicity EC50 at 48 hours, U87.
Setting [8] is: 72 h, read-out: Cytotoxicity EC50 at 72 hours, U87.
Setting [9] is: SK-MEL-28, 48 h, 48 h, read-out: Cytotoxicity EC50 at 48 hours, Sk mel.
[10] abbreviates: SK-MEL-28, 72 h, 72 h, read-out: Cytotoxicity EC50 at 72 hours, Sk mel.
Setting [11] is: 48 h, read-out: Cytotoxicity EC50 at 48 hours, Jurkat.
[12] abbreviates: 72 h, read-out: Cytotoxicity EC50 at 72 hours, Jurkat.
Where [13] appears, read: Homo sapiens, A-375, 48 h, read-out: Cytotoxicity EC50 at 48 hours, A375, 48 h.
Setting [14] is: Homo sapiens, A-375, 72 h, read-out: Cytotoxicity EC50 at 72 hours, A375, 72 h.
Where [15] appears, read: RPMI-7951, 48 h, read-out: Cytotoxicity EC50 at 48 hours, RPMI.
The mark [16] stands for this setting: RPMI-7951, 72 h, read-out: Cytotoxicity EC50 at 72 hours, RPMI.
Setting [17] is: read-out: Cytotoxicity EC50 at 48 hours, A375, 48 h.

Method for melanoma cell line A375: as §2, §3, §4, §5, §6, §7, §8, §9

One may read the EC50 as the concentration at which the effect is half-maximal. In the case of `O=S1(=O)C=CC(OS(=O)(=O)c2ccc3ccccc3c2)C1` (stereo not drawn) [(1), 1,1-dioxido-2,3-dihydrothiophen-3-yl naphthalene-2-sulfonate], the EC50 in series [1] (setting [7]) came out at 1000 nM; in series [1] (setting [8]) it was 4000 nM; in series [2] (setting [9]) it was 4000 nM; in series [2] (setting [10]), 300 nM; in series [3] (setting [11]), 3000 nM; in series [3] (setting [12]), 5000 nM. Also, the EC50 was 2100 nM in series [4]; 4000 nM in the series with melanoma cell line A375 (setting [13]); 800 nM in the series with melanoma cell line A375 (setting [14]); 1000 nM in series [6] (setting [15]); 4000 nM in series [6] (setting [16]). Also, the EC50 at 48 h in series [5] was 400 nM. Moreover, the EC50 at 72 h in series [5] came out at 400 nM.

Take `O=S1(=O)C=CC(OS(=O)(=O)c2ccc(-c3ccccc3)cc2)C1` (stereo not drawn) [(17), 1,1-dioxido-2,3-dihydrothiophen-3-yl [1,1′-biphenyl]-4-sulfonate]: the EC50 in series [1] (setting [7]) came out at 2000 nM; in series [1] (setting [8]), 900 nM; in series [2] (setting [9]), 3200 nM; in series [2] (setting [10]), 800 nM; in series [3] (setting [11]) it was 9000 nM; in series [3] (setting [12]) it was 2000 nM. Besides, the EC50 is 10000 nM in the series on melanoma cell line A375 (setting [14]), 2600 nM with melanoma cell line A375 (setting [17]), 1000 nM in series [6] (setting [15]) and 400 nM in series [6] (setting [16]). In series [5], this compound showed an EC50 at 48 h of 500 nM. For the same compound, the EC50 at 72 h in series [5] amounted to 500 nM.

Consider `O=S1(=O)C=CC(OS(=O)(=O)c2ccc(Oc3ccccc3)cc2)C1` (stereo not drawn) [(18), 1,1-dioxido-2,3-dihydrothiophen-3-yl 4-phenoxybenzenesulfonate], for which the EC50 in series [1] (setting [7]) was 1000 nM; in series [2] (setting [9]), 2000 nM; in series [2] (setting [10]), 3000 nM; in the series with melanoma cell line A375 (setting [13]) it was 2000 nM. The EC50 at 48 h in series [5] was determined as 200 nM. The compound further displayed an EC50 at 72 h in series [5] of 21000 nM.

Consider `O=C(OC1C=CS(=O)(=O)C1)c1ccc(-c2ccccc2)cc1` (stereo not drawn) [(24), 1,1-dioxido-2,3-dihydrothiophen-3-yl [1,1′-biphenyl]-4-carboxylate], for which the EC50 in series [4] is 49000 nM; in the series with melanoma cell line A375 (setting [13]) it was above 100000 nM.

With `O=S1(=O)C=CC(OS(=O)(=O)c2cccc(Oc3ccccc3)c2)C1` (stereo not drawn) [(25), 1,1-dioxido-2,3-dihydrothiophen-3-yl 3-phenoxybenzenesulfonate], the half-maximal effective concentration (EC50) was 900 nM in series [4] and 6000 nM in the series with melanoma cell line A375 (setting [13]).

As to `O=S1(=O)C=CC(OS(=O)(=O)c2cccc(-c3ccccc3)c2)C1` (stereo not drawn) [(26), 1,1-dioxido-2,3-dihydrothiophen-3-yl [1,1′-biphenyl]-3-sulfonate], the EC50 in series [4] worked out at 1000 nM; with melanoma cell line A375 (setting [13]), 7000 nM.

Turning to `O=S1(=O)C=CC(OS(=O)(=O)c2ccc(Cc3ccccc3)cc2)C1` (stereo not drawn) [(28), 1,1-dioxido-2,3-dihydrothiophen-3-yl 4-benzylbenzenesulfonate], the EC50 was determined as 900 nM in series [4] and 14000 nM with melanoma cell line A375 (setting [13]).

Regarding `O=S1(=O)C=CC(OS(=O)(=O)c2ccc(COc3ccccc3)cc2)C1` (stereo not drawn) [(29), 1,1-dioxido-2,3-dihydrothiophen-3-yl 4-(phenoxymethyl)benzenesulfonate], the EC50 in series [4] turned out to be 1000 nM; in the series on melanoma cell line A375 (setting [13]) it was 10000 nM.

As to `COS(=O)(=O)c1ccc2ccccc2c1` [(30), methyl naphthalene-2-sulfonate], the EC50 in series [4] was 8800 nM; in the series with melanoma cell line A375 (setting [13]), above 100000 nM.

As to `O=S1(=O)C=CC(OS(=O)(=O)c2ccc(-c3ccccc3)cc2)C1` (stereo not drawn) [(33), 1,1-dioxido-2,3-dihydrothiophen-3-yl [1,1′-biphenyl]-4-sulfonate], the EC50 came out at 2300 nM in series [4] and 1000 nM in the series with melanoma cell line A375 (setting [17]).

For the compound `O=S1(=O)C=CC(OS(=O)(=O)c2ccc(C3CCCCC3)cc2)C1` (stereo not drawn) [(34), 1,1-dioxido-2,3-dihydrothiophen-3-yl 4-cyclohexylbenzenesulfonate], the EC50 in series [4] was 900 nM; in the series on melanoma cell line A375 (setting [13]), 1500 nM.

`O=S1(=O)C=CC(OS(=O)(=O)c2cccc(C3CCCCC3)c2)C1` (stereo not drawn) [(35), 1,1-dioxido-2,3-dihydrothiophen-3-yl 3-cyclohexylbenzenesulfonate]: the EC50 in series [4] was found to be 1200 nM; in the series on melanoma cell line A375 (setting [13]) it was 1000 nM.

On to `O=S1(=O)C=CC(OS(=O)(=O)c2ccc(OC3CCCCC3)cc2)C1` (stereo not drawn) [(36), 1,1-dioxido-2,3-dihydrothiophen-3-yl 4-(cyclohexyloxy)benzenesulfonate], for which the EC50 in series [4] came to 2100 nM; with melanoma cell line A375 (setting [13]), 4300 nM.

For the compound `O=S1(=O)C=CC(OS(=O)(=O)c2cccc(OC3CCCCC3)c2)C1` (stereo not drawn) [(37), 1,1-dioxido-2,3-dihydrothiophen-3-yl 3-(cyclohexyloxy)benzenesulfonate], the EC50 in series [4] was found to be 1600 nM; with melanoma cell line A375 (setting [13]), 2800 nM.

In the case of `O=C(c1ccccc1)c1ccc(S(=O)(=O)OC2C=CS(=O)(=O)C2)cc1` (stereo not drawn) [(38), 1,1-dioxido-2,3-dihydrothiophen-3-yl 4-benzoylbenzenesulfonate], the EC50 in series [4] is 500 nM; with melanoma cell line A375 (setting [13]), 200 nM.

In the case of `O=S1(=O)C=CC(OS(=O)(=O)c2ccc(C(O)c3ccccc3)cc2)C1` (stereo not drawn) [(39), 1,1-dioxido-2,3-dihydrothiophen-3-yl 4-(hydroxy(phenyl)methyl)benzenesulfonate], the EC50 came to 1500 nM in series [4] and 1300 nM in the series with melanoma cell line A375 (setting [13]).

Consider `Cc1cc(Oc2ccccc2)ccc1S(=O)(=O)OC1C=CS(=O)(=O)C1` (stereo not drawn) [(40), 1,1-dioxido-2,3-dihydrothiophen-3-yl 2-methyl-4-phenoxybenzenesulfonate], for which the EC50 in series [4] is 200 nM; in the series on melanoma cell line A375 (setting [13]), 300 nM.

With `COc1cc(Oc2ccccc2)ccc1S(=O)(=O)OC1C=CS(=O)(=O)C1` (stereo not drawn) [(41), 1,1-dioxido-2,3-dihydrothiophen-3-yl 2-methoxy-4-phenoxybenzenesulfonate], the EC50 in series [4] is 500 nM; in the series with melanoma cell line A375 (setting [13]), 600 nM.

Consider `Cc1cc(S(=O)(=O)OC2C=CS(=O)(=O)C2)ccc1Oc1ccccc1` (stereo not drawn) [(42)], for which the EC50 worked out at 1200 nM in series [4] and 500 nM in the series on melanoma cell line A375 (setting [13]).

For the compound `COc1cc(S(=O)(=O)OC2C=CS(=O)(=O)C2)ccc1Oc1ccccc1` (stereo not drawn) [(43), 1,1-dioxido-2,3-dihydrothiophen-3-yl 3-methoxy-4-phenoxybenzenesulfonate], the results for the EC50 (in series [4]; in the series on melanoma cell line A375 (setting [13])) were 610 nM and 3120 nM, respectively.

Turning to `O=S1(=O)C=CC(OS(=O)(=O)c2ccc(Sc3ccccc3)cc2)C1` (stereo not drawn) [(44), 1,1-dioxido-2,3-dihydrothiophen-3-yl 4-(phenylthio)benzenesulfonate], the EC50 in series [4] worked out at 800 nM; in the series on melanoma cell line A375 (setting [13]) it was 3210 nM.

As for `O=S1(=O)C=CC(OS(=O)(=O)c2ccc(S(=O)(=O)c3ccccc3)cc2)C1` (stereo not drawn) [(45), 1,1-dioxido-2,3-dihydrothiophen-3-yl 4-(phenylsulfonyl)benzenesulfonate], the EC50 in series [4] is 2400 nM; in the series with melanoma cell line A375 (setting [13]) it was 25000 nM.

As for `CC(C)Nc1cc(-c2c[nH]c(C(=O)N[C@H](CO)c3cccc(Cl)c3)c2)c(Cl)cn1` [Ulixertinib, ulixertinib, reference compound], the EC50 in series [4] came to 14000 nM; in the series on melanoma cell line A375 (setting [13]), 600 nM. In series [5], this compound registered an EC50 at 48 h of 31000 nM.
